Test results reported in US20260355142A1, “AMORPHOUS OTE[…] COMPOSITIONS AND USES THEREOF AND DOSAGE REGIMENS FOR OTENAPROXESUL” (ANTIBE THERAPEUTICS INC., priority 2022, published 2026).
Converted amounts (≈) assume the structure as drawn. “Also recorded” adds a separate entry of the source. Values belong to the compound of their own block, whether it stands above or below them.

Assays:
[1] = Pharmacokinetics in Beagle dogs of five formulations (Example 15); assay type: in vivo; settings: Day 1, 1- and 12-hour time points
Protocol: The pharmacokinetics of five different formulations of otenaproxesul (formerly ATB-346) were evaluated in Beagle dogs. Five groups of dogs (n=3/group) were orally administered their assigned formulations once daily for four days. Blood samples were taken for a full 24-hour PK profile on Day 1 and on Day 4.
Group 1 was administered crystalline otenaproxesul, Group 2 was administered milled crystalline otenaproxesul, Group 3 was administered micro-milled crystalline otenaproxesul, Group 4 was administered exemplary ASD no. 1 (see Example 7A above) and Group 5 was administered exemplary ASD no. 4 (see Example 7A above). Dose administered was 15 mg/kg (human equivalent dose of 525 mg).
Crystalline otenaproxesul was administered to dog Groups 1-3 in gelatin capsules by oral gavage. Exemplary ASD no. 1 and exemplary ASD no. 4 were administered as oral suspensions to dog Groups 4-5.

[2] = Solubility in simulated intestinal fluid; assay type: physicochemical; settings: 0.5 wt % SIF
Source text: 1 compared to crystalline otenaproxesul in simulated intestinal fluid (SIF).

[3] = Stability/purity of ASDs by HPLC; assay type: physicochemical; settings: no storage condition given
Protocol: The stability of the exemplary amorphous solid dispersions of the application were evaluated using HPLC and are shown in Tables 14 A and B.
HPLC analyses were performed on a Waters 2695 or Agilent 1200, or equivalent, instrument. The column was an ACE-5 C18 150 mm×4.6 mm, 5 μm or equivalent column. The flow rate was 1.0 mL/min, the injection volume was 10 μL, the column temperature was 25° C., the sample temperature was 5° C. and the wavelength for detection was 254 nm. Two eluents were used which were either (1) A: 1.8 g K2HPO4·3H2O dissolved in 1000 ml of water and pH adjusted to 5.5 using orthophosphoric acid and B: acetonitrile; or (2) A: 1.4 g K2HPO4·3H2O dissolved in 1000 ml of water and pH adjusted to 7.0 with 85% phosphoric acid and B: acetonitrile.

[4] = Dog pharmacokinetics of otenaproxesul amorphous dispersion (Example 20); assay type: in vivo, male Beagle dogs
Protocol: Summary: Over a 4-day treatment period dogs were administered four treatment doses of the otenaproxesul amorphous solid dispersion formulation (exemplary ASD no. 1) and a crystalline otenaproxesul control dose. Treatments corresponding to human equivalent doses of 70.2 mg, 140.4 mg, 280.8 mg and 561.6 mg otenaproxesul were administered once daily to male (n=4) dogs. Crystalline otenaproxesul was administered at the NOAEL dose equivalent to a human dose of 526.5 mg otenaproxesul once daily.
Pharmacokinetic data were evaluated on M25 plasma naproxen concentrations at 60 minutes post administration (C60), Day 1 M25 plasma exposure (AUC0-24) and Day 4 M25 plasma exposure (AUC0-Last). Assessment of dose proportional characteristics for M25 plasma concentration at 60 minutes post administration (C60) and at maximal concentration (Cmax) and AUC exposure were measured on Day 1 and Day 4 of treatment.

[5] = H2S release / formulation stability in simulated gastric fluid; settings: SGF, 1 mg/ml, 37° C., 5% CO2
Protocol: Assay design: 1 mg of exemplary ASD no. 1 and crystalline otenaproxesul were weighed in separate glass vials. SGF was added to prepare a 1 mg/ml solution which was incubated at 37° C. with 5% CO2. 120 μl was removed at 0, 0.5, 1, 2, 3, 4 and 8 hrs and quenched in DPD and FeCl3 solutions. A blank and 10 mM stock was also analyzed. The methylene blue was analyzed using HPLC.
As H2S is volatile in the acidic form the calibration curve was not plotted, however H2S release was compared to T0.

[6] = test system: ALT and AST; assay: Analysis of liver transaminase elevations over the clinical studies; assay type: in vivo, human
Protocol: These LTEs were detected after the patients had completed their full treatment course.
When liver safety findings are observed, cumulative naproxen metabolite plasma drug exposure over the prescribed treatment period exceeded 4000 μg*hr/mL.

[7] = Phase 1 SAD/MAD clinical trial, safety and tolerability; assay type: in vivo, human
Protocol: Otenaproxesul (crystalline form) was orally administered at a range of doses to healthy volunteers, both as a single dose, and as a daily (or twice-daily) dose for 14 days. Each cohort consisted of 8 subjects, with 6 receiving otenaproxesul and 2 receiving placebo. A total of 8 cohorts were studied in the single-dose study (25 mg, 75 mg, 150 mg, 300 mg, 500 mg, 1000 mg, 1500 mg and 2000 mg), and 3 cohorts in the multiple-dose study (250 and 750 once daily, and 750 mg bid (e.g., 1500 mg/day) for 14 days). All adverse events were recorded, and blood samples were drawn prior to and for at least 72 h after drug administration for measurement of otenaproxesul-derived naproxen levels. Routine cardiovascular, renal, hepatic and hematological biomarkers were monitored, along with clinical signs. Multiple ascending dose studies examined otenaproxesul at doses of 250 and 750 mg once daily, and 750 mg twice daily.

[8] = test system: ALT and/or AST; assay: Phase 2b study, liver transaminase elevations; assay type: in vivo, human
Protocol: Study visits occurred on Day 1, Day 4, and Day 14 of the 14-day treatment phase and included WOMAC evaluations, blood samples for thromboxane B2 TXB2 and pharmacokinetic (PK) testing. The safety of otenaproxesul was evaluated through monitoring for adverse events (AEs), changes in physical examinations, vital signs measurements, and clinical laboratory evaluations.
All patients receiving any amount of study treatment (otenaproxesul or placebo) were included in the safety analysis. Each treatment arm was evaluated separately. In addition to the evaluation and categorization of treatment-emergent adverse events (TEAEs), listings of laboratory test results collected at Baseline and during the study were generated. Descriptive statistics summarizing the changes in those laboratory tests over time were presented.
The majority of otenaproxesul liver associated TEAEs were alanine aminotransferase (ALT) and/or aspartate aminotransferase (AST) liver transaminase elevations. None of these TEAEs were observed during the 14-day treatment period but were captured at the Day 24/Early Termination (ET) follow up assessment.

[9] = single dose, oral, 25 mg to 2000 mg, crystalline

lower M25 plasma concentration than the exemplary ASDs [1]: 10 ×
solubility at 2 h [2]: 51 µg/mL (≈ 140 µM)
ATB-346 API [3]: 99.45%
RRT-0.84 [3]: 0.18%
RRT-0.85 ATB-346-Amide [3]: 0.07%
RRT-1.10 [3]: 0.25%
M25 plasma concentration at 1 hour, Day 4, compared ([4]; crystalline HED 527 mg vs amorphous HED 562 mg): comparable M25 plasma concentrations
Cmax Day 4/Day 1 ratio ([4]; dogs, HED 526.5 mg): 1.4
steady state pharmacokinetics of M25 compared ([4]; dogs, crystalline 526.5 mg vs amorphous 561.6 mg HED): virtually identical
Peak area of methylene blue (H2S release) ([5]; 0 hrs): 1.6
Peak area of methylene blue (H2S release) ([5]; 0.5 hrs): 2.4
Peak area of methylene blue (H2S release) ([5]; 1 hr): 2
Peak area of methylene blue (H2S release) ([5]; 2 hrs): 2.3
Peak area of methylene blue (H2S release) ([5]; 3 hrs): 1.8
Peak area of methylene blue (H2S release) ([5]; 4 hrs): 1.9
Peak area of methylene blue (H2S release) ([5]; 8 hrs): 2.4
Compound: COc1ccc2cc([C@H](C)C(=O)Oc3ccc(C(N)=S)cc3)ccc2c1 [crystalline otenaproxesul]

Compound: COc1ccc2cc([C@H](C)C(=O)Oc3ccc(C(N)=S)cc3)ccc2c1 [otenaproxesul, (S)-4-carbamothioylphenyl 2-(6-methoxynaphthalen-2-yl) propanoate]
adverse liver effects (transient elevations of liver transaminases) ([6]; multiple dose 150, 200 or 250 mg for seven days): no observed adverse liver effects
liver transaminase elevations ([6]; multiple dose 150, 200 or 250 mg, 14 days or less): not detected
cumulative plasma naproxen exposure at which LTEs are not observed ([6]; over the prescribed treatment): ≤ 4000 µg·h/mL
cumulative naproxen plasma exposure when liver safety findings are observed ([6]; over the prescribed treatment period): exceeded 4000 μg*hr/mL
patients with dose-related liver transaminase elevation ([6]; phase 2 study): approximately 10%
liver transaminase elevations ([6]; single dose 25 mg to 2000 mg (crystalline)): not detected; also recorded: no observed adverse liver effects
tolerability ([7]; all single, once daily administered dose levels): very well tolerated and shown to be safe
gastrointestinal, cardiovascular, renal or hematological findings [7, 9]: nor were there any significant gastrointestinal, cardiovascular renal, or hematological findings
serious adverse events [7, 9]: did not produce any serious adverse events
patients with treatment-related >3×ULN ALT and/or AST ([8]; 150 mg (6/61)): 9.8%
patients with treatment-related increases in ALT and/or AST ([8]; 150 mg (6/61)): 9.8%
patients with treatment-related >3×ULN ALT and/or AST ([8]; 200 mg (9/125)): 7.2%
patients with treatment-related increases in ALT and/or AST ([8]; 200 mg (9/125)): 7.2%
patients with treatment-related >3×ULN ALT and/or AST ([8]; 250 mg (17/132)): 12.9%
patients with treatment-related increases in ALT and/or AST ([8]; 250 mg (17/132)): 12.9%
